Here are results for 10 compounds from ChEMBL document CHEMBL5550200, “Back-Pocket Optimization of 2-Aminopyrimidine-Based Macrocycles Leads to Potent EPHA2/GAK Kinase Inhibitors” (J Med Chem, 2024).

Assay [1] addresses Ephrin type-A receptor 7 (Homo sapiens) (UniProt Q15375). Put plainly: Induction of stabilization of recombinant EPHA7 (unknown origin) assessed as change in melting temperature by differential scanning fluorimetry assay. (Differential scanning fluorimetry follows unfolding on heating by fluorescence.)
For assay [2], the target named is T1, Ephrin type-B receptor 3 (Homo sapiens) (UniProt P54753).
T1 sequence (whole entry): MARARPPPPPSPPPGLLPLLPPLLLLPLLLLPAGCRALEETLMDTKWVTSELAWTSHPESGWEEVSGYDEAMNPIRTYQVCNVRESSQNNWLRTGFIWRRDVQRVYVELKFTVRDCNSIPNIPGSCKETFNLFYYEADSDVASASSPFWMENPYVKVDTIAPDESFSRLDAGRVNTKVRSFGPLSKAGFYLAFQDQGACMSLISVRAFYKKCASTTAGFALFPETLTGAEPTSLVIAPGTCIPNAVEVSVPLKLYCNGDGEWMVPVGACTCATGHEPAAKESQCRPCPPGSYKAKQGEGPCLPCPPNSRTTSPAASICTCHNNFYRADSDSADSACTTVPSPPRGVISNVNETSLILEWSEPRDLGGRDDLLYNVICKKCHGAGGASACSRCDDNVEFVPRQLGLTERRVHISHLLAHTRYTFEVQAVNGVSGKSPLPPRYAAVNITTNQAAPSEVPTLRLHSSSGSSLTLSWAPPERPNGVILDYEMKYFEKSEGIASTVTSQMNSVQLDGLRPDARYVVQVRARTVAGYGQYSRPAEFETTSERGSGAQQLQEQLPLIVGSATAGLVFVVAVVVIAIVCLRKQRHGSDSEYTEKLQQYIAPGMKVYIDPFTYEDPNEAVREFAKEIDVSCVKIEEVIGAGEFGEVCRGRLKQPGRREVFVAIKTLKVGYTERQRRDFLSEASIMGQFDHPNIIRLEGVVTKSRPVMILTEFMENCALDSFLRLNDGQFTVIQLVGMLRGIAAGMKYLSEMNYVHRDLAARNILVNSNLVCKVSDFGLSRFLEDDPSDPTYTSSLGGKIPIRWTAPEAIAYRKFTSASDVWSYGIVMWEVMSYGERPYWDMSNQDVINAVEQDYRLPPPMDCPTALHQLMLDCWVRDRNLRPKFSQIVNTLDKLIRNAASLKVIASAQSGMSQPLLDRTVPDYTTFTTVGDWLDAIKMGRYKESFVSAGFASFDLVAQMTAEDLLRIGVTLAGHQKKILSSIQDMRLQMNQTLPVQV
Put plainly: Induction of stabilization of recombinant EPHB3 (unknown origin) assessed as change in melting temperature by differential scanning fluorimetry assay.

Assay [3] concerns the target T2, Cyclin-G-associated kinase (Homo sapiens) (UniProt O14976).
T2 sequence (whole entry): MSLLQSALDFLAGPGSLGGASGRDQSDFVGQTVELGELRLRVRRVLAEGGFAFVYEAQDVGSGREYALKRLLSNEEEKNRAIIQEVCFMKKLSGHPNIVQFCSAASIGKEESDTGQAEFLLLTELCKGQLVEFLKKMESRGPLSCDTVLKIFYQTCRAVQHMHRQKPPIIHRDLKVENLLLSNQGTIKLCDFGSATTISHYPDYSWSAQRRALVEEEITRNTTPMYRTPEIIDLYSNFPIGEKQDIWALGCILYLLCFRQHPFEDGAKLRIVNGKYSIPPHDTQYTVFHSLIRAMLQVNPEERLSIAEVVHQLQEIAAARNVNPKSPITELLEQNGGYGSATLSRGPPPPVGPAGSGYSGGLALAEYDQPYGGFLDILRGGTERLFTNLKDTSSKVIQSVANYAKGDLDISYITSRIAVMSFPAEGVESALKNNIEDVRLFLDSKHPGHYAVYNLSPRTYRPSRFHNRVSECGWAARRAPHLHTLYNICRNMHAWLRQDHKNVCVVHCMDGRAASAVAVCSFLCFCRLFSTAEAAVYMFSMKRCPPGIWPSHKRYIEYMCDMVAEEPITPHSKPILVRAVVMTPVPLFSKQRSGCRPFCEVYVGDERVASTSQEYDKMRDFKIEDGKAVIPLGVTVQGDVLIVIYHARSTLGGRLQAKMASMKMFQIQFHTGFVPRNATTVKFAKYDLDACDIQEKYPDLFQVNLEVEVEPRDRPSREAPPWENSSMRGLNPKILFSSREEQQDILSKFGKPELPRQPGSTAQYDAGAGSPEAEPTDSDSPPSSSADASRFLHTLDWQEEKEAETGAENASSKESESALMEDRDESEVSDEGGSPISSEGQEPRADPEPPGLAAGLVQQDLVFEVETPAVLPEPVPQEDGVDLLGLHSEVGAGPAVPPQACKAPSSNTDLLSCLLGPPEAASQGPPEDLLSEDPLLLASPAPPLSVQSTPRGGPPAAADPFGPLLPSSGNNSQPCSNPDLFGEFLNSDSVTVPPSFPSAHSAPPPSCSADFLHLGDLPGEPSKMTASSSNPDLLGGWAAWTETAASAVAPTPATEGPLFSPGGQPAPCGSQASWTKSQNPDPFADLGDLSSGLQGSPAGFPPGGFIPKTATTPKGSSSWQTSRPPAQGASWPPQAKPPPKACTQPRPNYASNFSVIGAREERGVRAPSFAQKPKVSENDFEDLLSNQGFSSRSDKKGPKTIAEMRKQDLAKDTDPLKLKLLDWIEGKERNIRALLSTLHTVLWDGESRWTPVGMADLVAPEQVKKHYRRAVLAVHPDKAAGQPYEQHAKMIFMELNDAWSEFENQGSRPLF
Description: Induction of stabilization of recombinant GAK (unknown origin) assessed as change in melting temperature by differential scanning fluorimetry assay

For assay [4], the target named is Ephrin type-A receptor 5 (Homo sapiens) (UniProt P54756).
Ephrin type-A receptor 5 (Homo sapiens), sequence (P54756 whole entry): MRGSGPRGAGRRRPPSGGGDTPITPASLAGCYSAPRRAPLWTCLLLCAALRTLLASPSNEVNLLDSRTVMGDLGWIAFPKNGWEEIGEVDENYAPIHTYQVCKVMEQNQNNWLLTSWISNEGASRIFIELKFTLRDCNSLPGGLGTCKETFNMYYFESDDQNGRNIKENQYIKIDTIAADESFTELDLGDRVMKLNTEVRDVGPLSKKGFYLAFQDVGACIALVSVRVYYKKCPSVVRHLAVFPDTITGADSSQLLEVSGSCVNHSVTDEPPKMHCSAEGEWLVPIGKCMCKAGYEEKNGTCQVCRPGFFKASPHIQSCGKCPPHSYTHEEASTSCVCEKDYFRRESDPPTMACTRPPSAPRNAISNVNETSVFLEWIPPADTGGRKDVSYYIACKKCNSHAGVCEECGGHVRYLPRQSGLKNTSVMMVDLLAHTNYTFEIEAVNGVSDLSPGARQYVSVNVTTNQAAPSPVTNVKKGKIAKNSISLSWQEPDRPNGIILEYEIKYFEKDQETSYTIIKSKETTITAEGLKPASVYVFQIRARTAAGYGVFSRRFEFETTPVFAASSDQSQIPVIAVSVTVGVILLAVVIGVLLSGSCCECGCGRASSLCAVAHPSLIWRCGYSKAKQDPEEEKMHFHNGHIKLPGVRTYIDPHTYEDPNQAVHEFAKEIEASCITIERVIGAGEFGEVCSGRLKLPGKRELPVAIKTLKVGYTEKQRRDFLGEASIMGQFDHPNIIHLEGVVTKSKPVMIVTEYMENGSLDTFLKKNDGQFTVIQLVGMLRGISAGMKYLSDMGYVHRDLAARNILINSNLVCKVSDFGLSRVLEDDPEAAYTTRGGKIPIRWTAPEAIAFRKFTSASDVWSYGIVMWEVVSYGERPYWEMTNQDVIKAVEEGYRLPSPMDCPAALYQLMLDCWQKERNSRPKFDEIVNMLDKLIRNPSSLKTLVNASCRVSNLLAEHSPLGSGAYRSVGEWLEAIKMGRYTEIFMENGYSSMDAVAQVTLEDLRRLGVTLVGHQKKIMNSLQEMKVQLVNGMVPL
Description: Induction of stabilization of recombinant EPHA5 (unknown origin) assessed as change in melting temperature by differential scanning fluorimetry assay
In assay [5] the target is Ephrin type-A receptor 4 (Homo sapiens, UniProt P54764). Put plainly: Induction of stabilization of recombinant EPHA4 (unknown origin) assessed as change in melting temperature by differential scanning fluorimetry assay.
Ephrin type-A receptor 4, sequence (P54764 whole entry): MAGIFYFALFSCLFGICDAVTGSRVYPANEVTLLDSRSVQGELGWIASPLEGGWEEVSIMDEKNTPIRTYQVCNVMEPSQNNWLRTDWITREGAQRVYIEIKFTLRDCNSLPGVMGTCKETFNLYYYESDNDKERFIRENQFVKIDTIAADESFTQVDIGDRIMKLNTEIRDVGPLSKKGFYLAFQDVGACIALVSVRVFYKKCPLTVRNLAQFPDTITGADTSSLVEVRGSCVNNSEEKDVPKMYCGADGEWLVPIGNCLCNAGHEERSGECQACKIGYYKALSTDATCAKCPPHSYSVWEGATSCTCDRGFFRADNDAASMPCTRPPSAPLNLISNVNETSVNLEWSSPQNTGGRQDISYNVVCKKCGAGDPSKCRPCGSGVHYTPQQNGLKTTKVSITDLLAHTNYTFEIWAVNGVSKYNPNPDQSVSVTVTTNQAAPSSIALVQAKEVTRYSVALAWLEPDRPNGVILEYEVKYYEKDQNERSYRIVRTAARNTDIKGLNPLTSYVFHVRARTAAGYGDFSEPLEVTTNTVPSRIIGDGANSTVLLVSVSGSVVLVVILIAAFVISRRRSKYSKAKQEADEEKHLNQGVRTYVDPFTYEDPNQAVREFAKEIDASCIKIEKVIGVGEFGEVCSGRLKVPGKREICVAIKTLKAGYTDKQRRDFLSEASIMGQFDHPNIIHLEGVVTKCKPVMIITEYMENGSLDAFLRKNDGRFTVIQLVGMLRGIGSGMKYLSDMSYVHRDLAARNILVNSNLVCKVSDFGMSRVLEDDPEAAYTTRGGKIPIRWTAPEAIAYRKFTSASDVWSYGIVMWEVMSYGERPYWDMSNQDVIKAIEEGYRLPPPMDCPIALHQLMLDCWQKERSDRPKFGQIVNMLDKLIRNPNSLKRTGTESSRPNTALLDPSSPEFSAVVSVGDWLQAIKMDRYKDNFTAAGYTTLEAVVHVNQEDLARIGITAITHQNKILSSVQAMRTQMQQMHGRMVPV
Assay [6] has as its target T3, Ephrin type-B receptor 1 (Homo sapiens) (UniProt P54762).
T3 sequence (whole entry): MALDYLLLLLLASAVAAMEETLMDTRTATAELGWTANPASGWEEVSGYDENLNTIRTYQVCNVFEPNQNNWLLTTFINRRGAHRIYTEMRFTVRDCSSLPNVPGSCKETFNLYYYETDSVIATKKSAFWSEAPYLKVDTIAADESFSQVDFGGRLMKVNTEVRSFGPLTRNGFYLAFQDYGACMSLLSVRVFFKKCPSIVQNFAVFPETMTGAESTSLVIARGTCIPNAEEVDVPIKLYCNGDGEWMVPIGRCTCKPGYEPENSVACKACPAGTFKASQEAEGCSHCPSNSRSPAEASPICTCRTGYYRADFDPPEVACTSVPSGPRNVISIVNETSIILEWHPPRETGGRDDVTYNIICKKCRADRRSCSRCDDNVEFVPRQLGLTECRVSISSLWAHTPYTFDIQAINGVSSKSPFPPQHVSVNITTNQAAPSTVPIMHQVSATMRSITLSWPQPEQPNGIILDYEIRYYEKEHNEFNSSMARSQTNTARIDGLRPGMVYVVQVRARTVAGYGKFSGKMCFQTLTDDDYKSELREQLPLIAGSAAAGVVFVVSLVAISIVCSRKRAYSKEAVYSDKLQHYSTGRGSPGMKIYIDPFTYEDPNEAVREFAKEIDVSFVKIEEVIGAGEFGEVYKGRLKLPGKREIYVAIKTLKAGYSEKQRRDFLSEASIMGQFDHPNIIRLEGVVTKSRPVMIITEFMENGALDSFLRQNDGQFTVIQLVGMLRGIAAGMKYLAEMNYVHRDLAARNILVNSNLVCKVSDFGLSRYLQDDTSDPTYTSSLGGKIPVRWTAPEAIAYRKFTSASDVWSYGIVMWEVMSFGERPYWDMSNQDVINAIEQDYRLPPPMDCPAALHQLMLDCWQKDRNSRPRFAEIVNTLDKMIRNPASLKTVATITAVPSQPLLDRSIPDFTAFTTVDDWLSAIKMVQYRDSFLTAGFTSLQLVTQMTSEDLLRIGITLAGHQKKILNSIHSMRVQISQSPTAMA
Put plainly: Induction of stabilization of recombinant EPHB1 (unknown origin) assessed as change in melting temperature by differential scanning fluorimetry assay.

In assay [7] the target is Vascular endothelial growth factor receptor 1 (Homo sapiens, UniProt P17948). The assay can be described thus: Induction of stabilization of recombinant FLT1 (unknown origin) assessed as change in melting temperature by differential scanning fluorimetry assay.
Assay [8] concerns the target Fibroblast growth factor receptor 2 (Homo sapiens) (UniProt P21802).
Description: Induction of stabilization of recombinant FGFR2 (unknown origin) assessed as change in melting temperature by differential scanning fluorimetry assay
The target in assay [9] is Ephrin type-A receptor 2 (Homo sapiens, UniProt P29317).
Ephrin type-A receptor 2, sequence (P29317 whole entry): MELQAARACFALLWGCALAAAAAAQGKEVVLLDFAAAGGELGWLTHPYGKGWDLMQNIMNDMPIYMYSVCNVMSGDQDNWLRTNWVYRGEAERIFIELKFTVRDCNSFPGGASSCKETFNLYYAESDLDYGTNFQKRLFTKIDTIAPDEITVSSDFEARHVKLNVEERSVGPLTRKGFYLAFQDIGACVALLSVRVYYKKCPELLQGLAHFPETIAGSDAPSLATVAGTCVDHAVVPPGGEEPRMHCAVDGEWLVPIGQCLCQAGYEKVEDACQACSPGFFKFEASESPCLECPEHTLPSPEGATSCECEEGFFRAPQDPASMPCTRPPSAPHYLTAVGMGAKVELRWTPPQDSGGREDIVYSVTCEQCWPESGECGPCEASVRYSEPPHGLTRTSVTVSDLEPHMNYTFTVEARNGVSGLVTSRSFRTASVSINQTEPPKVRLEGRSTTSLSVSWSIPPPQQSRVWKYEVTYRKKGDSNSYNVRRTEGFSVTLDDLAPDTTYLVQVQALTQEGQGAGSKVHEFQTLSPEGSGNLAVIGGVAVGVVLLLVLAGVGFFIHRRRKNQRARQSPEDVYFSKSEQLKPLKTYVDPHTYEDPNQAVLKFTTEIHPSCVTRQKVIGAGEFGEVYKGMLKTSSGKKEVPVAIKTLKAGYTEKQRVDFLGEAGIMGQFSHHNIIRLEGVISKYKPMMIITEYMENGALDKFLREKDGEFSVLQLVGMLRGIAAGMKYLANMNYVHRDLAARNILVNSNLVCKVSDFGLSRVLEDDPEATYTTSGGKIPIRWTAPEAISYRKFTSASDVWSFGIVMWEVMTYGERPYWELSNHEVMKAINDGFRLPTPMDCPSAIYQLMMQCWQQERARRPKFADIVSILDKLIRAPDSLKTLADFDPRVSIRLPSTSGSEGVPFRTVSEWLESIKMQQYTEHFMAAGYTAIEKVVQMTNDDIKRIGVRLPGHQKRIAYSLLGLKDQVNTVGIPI
Description: Induction of stabilization of recombinant EPHA2 (D596 to G900 residues) (unknown origin) expressed in Escherichia coli rosetta BL21(D3)-R3-pRARE2 competent cells assessed as change in melting temperature by differential scanning fluorimetry assay
Assay [10] has as its target Fibroblast growth factor receptor 1 (Homo sapiens, UniProt P11362).
Description: Induction of stabilization of recombinant FGFR1 (unknown origin) assessed as change in melting temperature by differential scanning fluorimetry assay

Fibroblast growth factor receptor 1, sequence (P11362 22-822 limits assumed): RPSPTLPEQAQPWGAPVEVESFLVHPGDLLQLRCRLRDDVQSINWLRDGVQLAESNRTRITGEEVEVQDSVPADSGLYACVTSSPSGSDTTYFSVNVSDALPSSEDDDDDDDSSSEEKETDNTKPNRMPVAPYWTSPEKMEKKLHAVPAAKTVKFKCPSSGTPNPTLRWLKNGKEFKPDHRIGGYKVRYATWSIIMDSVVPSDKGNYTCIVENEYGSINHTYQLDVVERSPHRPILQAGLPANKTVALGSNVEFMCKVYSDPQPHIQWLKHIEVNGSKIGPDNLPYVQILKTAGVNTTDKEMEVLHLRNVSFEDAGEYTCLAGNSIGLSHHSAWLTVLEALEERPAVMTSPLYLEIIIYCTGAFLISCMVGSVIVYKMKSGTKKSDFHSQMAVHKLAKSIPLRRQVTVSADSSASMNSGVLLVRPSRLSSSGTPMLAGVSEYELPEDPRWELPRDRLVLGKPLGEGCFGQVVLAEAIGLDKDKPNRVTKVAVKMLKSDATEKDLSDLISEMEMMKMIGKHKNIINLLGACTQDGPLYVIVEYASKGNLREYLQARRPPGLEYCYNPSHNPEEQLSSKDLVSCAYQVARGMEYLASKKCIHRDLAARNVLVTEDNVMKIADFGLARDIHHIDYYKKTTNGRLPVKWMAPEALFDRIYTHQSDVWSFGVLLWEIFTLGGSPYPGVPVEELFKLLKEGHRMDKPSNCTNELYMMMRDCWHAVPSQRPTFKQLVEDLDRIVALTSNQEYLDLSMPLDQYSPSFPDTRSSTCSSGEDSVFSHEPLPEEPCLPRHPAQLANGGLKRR
Ephrin type-A receptor 7 (Homo sapiens), sequence (Q15375 28-998 limits assumed): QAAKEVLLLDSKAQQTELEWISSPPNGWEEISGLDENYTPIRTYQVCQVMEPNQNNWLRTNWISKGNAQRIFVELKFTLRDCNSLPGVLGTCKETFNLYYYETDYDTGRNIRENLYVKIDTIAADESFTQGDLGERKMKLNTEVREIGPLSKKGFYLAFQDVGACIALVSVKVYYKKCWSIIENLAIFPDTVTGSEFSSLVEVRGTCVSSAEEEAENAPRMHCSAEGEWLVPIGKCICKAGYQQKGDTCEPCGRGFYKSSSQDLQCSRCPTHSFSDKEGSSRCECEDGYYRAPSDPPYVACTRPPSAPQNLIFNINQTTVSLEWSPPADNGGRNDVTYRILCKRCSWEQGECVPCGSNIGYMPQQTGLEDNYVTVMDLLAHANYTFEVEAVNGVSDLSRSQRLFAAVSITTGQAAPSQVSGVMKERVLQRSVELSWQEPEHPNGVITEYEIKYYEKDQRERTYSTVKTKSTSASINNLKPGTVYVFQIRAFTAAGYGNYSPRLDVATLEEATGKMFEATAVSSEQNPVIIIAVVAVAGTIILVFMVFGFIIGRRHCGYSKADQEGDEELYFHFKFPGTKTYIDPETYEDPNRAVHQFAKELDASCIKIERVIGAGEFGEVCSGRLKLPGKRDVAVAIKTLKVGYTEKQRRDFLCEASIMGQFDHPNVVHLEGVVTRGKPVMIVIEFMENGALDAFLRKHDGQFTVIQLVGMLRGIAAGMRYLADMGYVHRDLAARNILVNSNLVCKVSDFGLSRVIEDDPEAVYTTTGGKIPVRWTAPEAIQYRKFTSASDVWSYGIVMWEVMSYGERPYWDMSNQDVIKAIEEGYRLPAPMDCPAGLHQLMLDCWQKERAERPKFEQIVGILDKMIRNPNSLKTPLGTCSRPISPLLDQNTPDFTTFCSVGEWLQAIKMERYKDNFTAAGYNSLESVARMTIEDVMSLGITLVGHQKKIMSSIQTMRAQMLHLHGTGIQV

As to `COc1cc(-c2cnc3nc2NCCCNS(=O)(=O)c2cccc(c2)N3)cc(OC)c1OC`, the deltaTm was -0.3 K in [1]; 2.4 K in assay [2]; 5.9 K in [3]; 2.9 K in [4]; 2.2 K in assay [5]; 2.2 K in [6]. Moreover, the deltaTm in [7] worked out at 0.7 K; in [8] it was 1.2 K; in [9] it was 6 K; in assay [10], 0.8 K.
Consider `COC(=O)c1ccc(-c2cnc3nc2NCCCNS(=O)(=O)c2cccc(c2)N3)cc1OC`, for which the deltaTm came to 0.1 K in assay [1]; 1.3 K in assay [2]; 3.1 K in assay [3]; 1.8 K in assay [4]; 1.3 K in [5]; 1.1 K in [6]. Moreover, the deltaTm in [7] is 2.6 K; in [8], 1.8 K; in assay [9], 2.9 K; in [10] it was 0.6 K.
For `COC(=O)c1cc(-c2cnc3nc2NCCCNS(=O)(=O)c2cccc(c2)N3)ccc1F`, the deltaTm in assay [1] was -2.8 K; in [2] it was 1.5 K; in assay [3], -1.3 K; in assay [4], -0.7 K; in assay [5], -0.6 K; in [6], 1.3 K. For the same compound, the deltaTm in assay [7] stood at 6.4 K; in assay [8], 3.1 K; in [9], 2.1 K; in assay [10], 3.5 K.
As to `COc1cc(-c2cnc3nc2NCCCNS(=O)(=O)c2cccc(c2)N3)cc(C(F)(F)F)c1`, the deltaTm in [1] is 1.4 K; in [2], 1.1 K; in [3], 3.3 K; in assay [4] it was 1.3 K; in [5], 0.8 K; in [6] it was 0.9 K. Moreover, the deltaTm in assay [7] was 5.3 K; in [8], 5.8 K; in assay [9] it was 1.8 K; in [10], 4.9 K.
Consider `O=S1(=O)NCCCNc2nc(ncc2Br)Nc2cccc1c2`, for which the deltaTm is 4.9 K in assay [3] and 6.7 K in [9].
As to `Cc1cc(Cl)c(Cl)cc1-c1cnc2nc1NCCCNS(=O)(=O)c1cccc(c1)N2`, the deltaTm worked out at 0.5 K in [1]; 0 K in [2]; 4.9 K in assay [3]; 3.5 K in assay [4]; 2.6 K in assay [5]; 3.2 K in assay [6]. Besides, the deltaTm was found to be 2.7 K in assay [7], 3.6 K in assay [8], 6.2 K in [9] and 2.4 K in assay [10].
On to `CN[C@@H]1C[C@H]2O[C@@](C)([C@@H]1OC)n1c3ccccc3c3c4c(c5c6ccccc6n2c5c31)C(=O)NC4`, for which the deltaTm in assay [2] was 6.1 K; in [5], 6.2 K; in assay [6], 6.4 K; in assay [7], 10.2 K; in [9] it was 6.4 K.
Consider `O=S1(=O)NCCCNc2nc(ncc2-c2ccc(F)c(O)c2)Nc2cccc1c2`, for which the deltaTm in assay [1] is -2 K; in assay [2], 3 K; in assay [3], 6.4 K; in [4], 4.1 K; in assay [5], 2.9 K; in [6], 4 K. The deltaTm in [7] is 10.7 K; in [8], 6.5 K; in [9], 7.8 K; in assay [10] it was 4.9 K.
`COc1cc(-c2cnc3nc2NCCCNS(=O)(=O)c2cccc(c2)N3)cc(F)c1F`: the deltaTm in [1] is -3.3 K; in [2] it was 2.3 K; in assay [3], 4.1 K; in assay [4] it was 1.9 K; in [5], 1.2 K; in assay [6] it was 2.7 K. In addition, the deltaTm in assay [7] was determined as 3 K; in assay [8], 2.9 K; in assay [9], 5 K; in assay [10], 2.2 K.
`O=S1(=O)NCCCNc2nc(ncc2-c2cccc(Cl)c2F)Nc2cccc1c2`: the deltaTm in assay [1] was determined as 1.8 K; in [2], 3.7 K; in [3], 5.3 K; in assay [4], 4.6 K; in [5] it was 3.4 K; in assay [6], 3.1 K. The deltaTm was 6 K in assay [7], 5.3 K in assay [8], 7 K in assay [9] and 4 K in assay [10].
